The values below come from patent publication US5910499A, “Antiallergic agent having an anti-oxidant action” (LTT Institute Co., Ltd., priority 1997, dated 1999).

The subject of one experiment is rat liver microsome. Briefly: ADP/Fe^3+ induced lipid peroxidation reaction using rat liver microsome (anti-oxidant action). Particulars: for inhibition action on lipid peroxidation compared with BHT: versus BHT, positive control (FIG. 1). It is filed as biochemical. How it is done: Test Example 1 [Anti-oxidant-action (lipid peroxide production inhibiting action)]
Compounds II-VII represented by the following formulae [drawing 3] have shown concentration dependent inhibition action on ADP/Fe^3+ induced lipid peroxidation reaction using rat liver microsome.
Test method (ADP/Fe^3+ induced lipid peroxidation reaction)
The method of Kiso et al. was employed. That means, 100 μl of a rat liver microsome suspension (20 mg of protein/ml), 100 μl of a 2 mM NADPH, 100 μl of a 10 mM ADP, and 100 μl of a specimen solution whose concentration was controlled with a 10% N,N-dimethylformamide (DMF) aqueous solution were added to 500 μl of a trihydroxymethylaminomethane (Tris)-HCl buffer solution (167 mM KCl, 74.4 mM Tris, pH 7.4) and heated at 37° C. for 5 minutes. Then 100 μl of 100 μM FeCl3 was added thereto and heated at 37° C. for 20 minutes
To a control was added 100 μl of a 10% DMF aqueous solution instead of the specimen solution. To a blank, 100 μl of a 10% DMF aqueous solution was added instead of the specimen solution, and 300 μl of water was added instead of 100 μl of the NADPH, 100 μl of the FeCl3, and 100 μl of the ADP. The reaction was stopped by cooling with ice, and the amount of the lipid peroxide was calculated as an amount of malondialdehyde according to the method of Ohkawa et al.
That means, 200 μl of a 8.1% sodium dodecyl sulfate (SDS) aqueous solution, 1.5 ml of an acetic acid buffer solution (20% AcOH containing 0.27M HCl was controlled with 10M NaOH to have a pH of 3.5), and 1.5 ml of a 0.8% 2-thiobarbituric acid aqueous solution were added to 1 ml of the reaction mixture and heated in a boiling water bath for 20 minutes Following heating, the reaction was stopped with cooling with ice and 4 ml of n-BuOH-pyridine mixed solution (15:1) was added thereto and mixed vigorously. Then the mixture was subjected to centrifugation at 800×g for 10 minutes and the absorbancy of the supernatant liquid was measured at 532 nm.
(In general: Liver microsomes are a subcellular fraction often used to study metabolism.)

For a further experiment, the target named is T1, 5-lipoxygenase (Rattus norvegicus, UniProt P12527).
T1 construct: subjected to supersonic treatment and the cells were disrupted; endogenous in cells; host or cells: RBL-1 cells (homogenate)
T1 sequence (P12527 1-673): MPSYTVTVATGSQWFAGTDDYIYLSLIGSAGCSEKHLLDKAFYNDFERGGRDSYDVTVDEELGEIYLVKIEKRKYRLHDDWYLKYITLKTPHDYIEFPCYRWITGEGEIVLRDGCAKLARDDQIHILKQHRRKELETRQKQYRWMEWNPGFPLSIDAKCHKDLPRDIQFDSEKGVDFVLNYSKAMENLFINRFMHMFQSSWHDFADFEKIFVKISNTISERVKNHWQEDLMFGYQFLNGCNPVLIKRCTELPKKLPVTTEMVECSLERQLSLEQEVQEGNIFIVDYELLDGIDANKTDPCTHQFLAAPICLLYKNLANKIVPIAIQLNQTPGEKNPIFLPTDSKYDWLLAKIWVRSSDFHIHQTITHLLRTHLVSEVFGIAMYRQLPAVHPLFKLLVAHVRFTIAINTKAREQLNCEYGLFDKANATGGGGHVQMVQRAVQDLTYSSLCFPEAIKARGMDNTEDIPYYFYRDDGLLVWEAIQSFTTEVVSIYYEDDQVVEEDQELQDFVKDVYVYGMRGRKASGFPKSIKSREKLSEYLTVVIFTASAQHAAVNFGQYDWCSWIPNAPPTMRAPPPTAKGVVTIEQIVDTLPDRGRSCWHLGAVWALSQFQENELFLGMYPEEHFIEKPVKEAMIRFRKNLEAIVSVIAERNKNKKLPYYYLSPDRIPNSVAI
Put plainly: 5-lipoxygenase inhibiting action (leucotriene production inhibiting action), RBL-1 cell homogenate. Particulars: arachidonic acid, 37° C., 5-HETE by HPLC. It is filed as biochemical.

In another experiment the target is T2, guinea pig bowel (Cavia porcellus, UniProt P31389).
T2 construct: the ileum was excised to a length of about 2 cm; from tissue; host or cells: guinea pig ileum
T2 sequence (P31389 whole entry): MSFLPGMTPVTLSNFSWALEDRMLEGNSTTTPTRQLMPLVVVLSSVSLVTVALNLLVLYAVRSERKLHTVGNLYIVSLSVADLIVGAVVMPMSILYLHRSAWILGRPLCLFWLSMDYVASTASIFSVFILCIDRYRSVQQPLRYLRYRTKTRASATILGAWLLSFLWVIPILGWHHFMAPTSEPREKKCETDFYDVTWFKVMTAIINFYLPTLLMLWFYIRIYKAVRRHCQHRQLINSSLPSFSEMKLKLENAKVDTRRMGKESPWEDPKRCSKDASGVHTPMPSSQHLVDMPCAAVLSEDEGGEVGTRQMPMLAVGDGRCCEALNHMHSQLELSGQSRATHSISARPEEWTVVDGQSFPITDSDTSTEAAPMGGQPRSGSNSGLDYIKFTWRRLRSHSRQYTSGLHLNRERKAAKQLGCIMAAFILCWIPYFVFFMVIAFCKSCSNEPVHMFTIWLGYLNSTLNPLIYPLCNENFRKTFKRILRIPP
Briefly: Antihistaminic action with guinea pig bowel by Magnus' method. The settings on record: guinea pig ileum, histamine dose reaction curve, 37° C.; read-out: pA2 (index of the antihistaminic action) (converted). The method, then:
Test Example 3--Antihistaminic action
The antihistaminic action of the Compound V was tested with a guinea pig bowel by Magnus' method using diphenhydramine hydrochloride as a positive control.
A guinea pig which had been fasted overnight was struck to death and the ileum was excised to a length of about 2 cm and one end was suspended in an isotonic transducer and the other end was secured onto a fixed rod. The temperature of the temperature controlled bath was kept at 37° C. and the ileum was allowed to stand for about 30 minutes while a mixed gas comprising 95% of O2 and 5% of CO2 was introduced into 10 ml of Tyrode solution, and histamine of different concentrations was injected for training, then a dose reaction curve was obtained by administering histamine accumulatively in order of increasing concentration. Then after washing, a dose reaction curve in relation to the histamine was similarly obtained under administration of the specimen and pA2 was calculated.

In experiment [1] the test system is rat cutaneous anaphylactic reaction (PCA reaction). Put plainly: Antiallergic action in an orally administered rat, 48 hours homologous PCA reaction. It is filed as in vivo. The settings on record: Wistar male rat, oral, 2 hours before antigen; versus tranilast (FIG. 2). The method, then:
Test Example 4--Antiallergic action in an orally administered rat (PCA method)
The antiallergic actions of Compound II-Compound VII were evaluated using rat cutaneous anaphylactic reaction (PCA reaction) employing tranilast, which is an oral antiallergic agent, as a positive control compound.
Test method (Antiallergic action by PCA reaction)
The test was carried out according to the method of Koda et al, {Int. Arch. Allergy Appl. Immunol. 87, 254(1988)}. The dorsum of a Wistar-strain male rat having a body weight of about 200 g was shaved and 0.1 ml of an antiserum showing 48 hours homologous PCA strength of 1:128-1:256 diluted with physiological saline was injected into the dorsum intracutaneously. […] After 30 minutes, the rat was brought to death by exsanguination and the pigment freckle generated on the back skin was cut out and the amount of the transuded pigment was determined. That means, the cut out skin was put in a test tube, 1 ml of 1N KOH was added and allowed to stand overnight at 37° C. to elute the pigment, and 9 ml of a mixture comprising acetone and 0.6N phosphoric acid (mixed at 13:5) was added thereto and shaken, and the insoluble substances were removed by filtration and the absorbency of the filtrate was measured at 620 nm and the amount of the pigment was determined. […]

For orientation: IC50 means the point on the concentration scale where inhibition reaches its midpoint. Read a high IC50 as weaker potency.

Method for 5-lipoxygenase: Test method (5-lipoxygenase inhibition action)
That means, a RBL-1 cell suspension which was adjusted with a 50 mM phosphate buffer such that the number of cells became 1×10^7 cells/ml, was subjected to supersonic treatment and the cells were disrupted To 500 μl of the cell homogenate solution was added 10 μl of a specimen solution whose concentration was adjusted to different concentrations using a 1% DMSO, 10 μl of 100 mM CaCl2 and 10 μl of a 10 mg/ml arachidonic acid solution in MeOH and heated to 37° C. for 3 minutes. To a control was added 10 μl of a 1% DMSO instead of the specimen. To a blank, 10 μl of a 1% DMSO was added instead of the specimen, and 500 μl of a 50 mM phosphate buffer was added instead of RBL-1 cell suspension. Then 500 μl of MeOH was added thereto and the mixture was cooled with ice to stop the reaction, followed by mixing and centrifugation at 2000×g for 15 minutes Then the amount of 5-HETE in 10 μl of the supernatant liquid was measured using HPLC under the following conditions.
mobile phase; acetonitrile: 0.1% acetic acid=85:15
detection wave length; 235 nm
The inhibition ratio to 5-lipoxygenase activity was calculated according to the following formula.

For the compound `Cc1cc(OCCCCCCN2CCN(C(c3ccccc3)c3ccccc3)CC2)c(C)c(C)c1O` [Compound V], the “anti-oxidant action, ranking among the compounds of Test Example 1” value in the experiment with rat liver microsome (result in words) was “highest anti-oxidant action”. Further, in the experiment on rat liver microsome, the “inhibition action on lipid peroxidation compared with BHT” value (“inhibition action … compared with BHT” below) is given as “higher inhibition actions than BHT”. For the same compound, the midpoint of inhibition against 5-lipoxygenase, the IC50, lay at 6.2 µM. Besides, on guinea pig bowel, the Kb is 126 nM. In addition, the “antiallergic activity compared with the positive control compound (tranilast)” value in experiment [1] is recorded as “higher activity than that of the positive control compound”.
Regarding `Cc1cc(OCCN2CCN(C(c3ccccc3)c3ccccc3)CC2)c(C)c(C)c1O` [Compound II], the “inhibition action … compared with BHT” value in the experiment with rat liver microsome is “higher inhibition actions than BHT”.
Take `Cc1cc(OCCCCN2CCN(C(c3ccccc3)c3ccccc3)CC2)c(C)c(C)c1O` [Compound IV]: the “inhibition action … compared with BHT” value with rat liver microsome is recorded as “higher inhibition actions than BHT”. Further, in experiment [1], the “antiallergic activity compared with the positive control compound (tranilast)” value was “higher activity than that of the positive control compound”.
As for `Cc1cc(OCCCN2CCN(C(c3ccccc3)c3ccccc3)CC2)c(C)c(C)c1O` [Compound III], the “inhibition action … compared with BHT” value in the experiment on rat liver microsome was “higher inhibition actions than BHT”.
